Counter-ions that a name gives are not always drawn.
Target: T1, recombinant human NR2F6 protein (Homo sapiens, UniProt P10588)
T1 sequence (P10588 1-404): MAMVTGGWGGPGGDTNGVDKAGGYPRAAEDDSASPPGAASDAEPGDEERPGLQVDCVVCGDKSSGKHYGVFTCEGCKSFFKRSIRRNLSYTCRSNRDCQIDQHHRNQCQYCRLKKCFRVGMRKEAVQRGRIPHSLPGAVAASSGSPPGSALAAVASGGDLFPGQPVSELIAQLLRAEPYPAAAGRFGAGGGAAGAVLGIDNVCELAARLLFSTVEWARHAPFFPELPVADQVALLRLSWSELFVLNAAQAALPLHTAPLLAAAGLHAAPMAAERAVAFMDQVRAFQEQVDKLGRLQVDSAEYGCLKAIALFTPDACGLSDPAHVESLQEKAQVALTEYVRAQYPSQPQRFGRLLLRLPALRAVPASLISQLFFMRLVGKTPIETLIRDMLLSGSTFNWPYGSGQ
Experiment: Biochemical NR2F6 binding assay (EnSpire label-free)
Conditions: label-free binding to immobilized purified recombinant human NR2F6; ligands 1 nM to 100 uM, 1% DMSO
Protocol: Purified recombinant human NR2F6 protein was dissolved in immobilization buffer at pH 4.5 and then immobilized in EnSpire-LFB High-Sensitivity User-Activated Plates at the concentration of 50 μg/well plate and left in incubation for 16 h at 4° C. Wells with only immobilization buffer were used as negative control to check the protein coating efficiency. NR2F6 ligands were resuspended in DMSO at the concentration of 10 mM, then dispensed into a plate containing assay buffer at concentrations ranging from 1 nM to 100 uM using an HP-dispenser. DMSO was normalized at the 1% of volume of each well. The final readings were taken over a period of 30 minutes. The label-free responses were measured as shifts in reflected wavelength and are expressed in picometers (pm). Results were analyzed using the EnSpire label-free user interface software, and EC50 and graphs were generated using GraphPad PRISM software. In the tables below, A is <1 μM; B is 1 to 10 μM; C is 10 to 50 μM; and D is >50 μM.

Structure (SMILES) | EC50 [µM]
O=C(NCc1cccc2cnccc12)[C@@H]1CNC[C@H]1c1ccccc1 [Compound I-95, (3S,4R)—N-(Isoquinolin-5-ylmethyl)-4-phenylpyrrolidine-3-carboxamide dihydrochloride] | 1 to 10
O=C(N[C@H]1C[C@H](Oc2ccc(F)cc2)C1)[C@H]1CNC[C@@H]1c1ccccc1 (racemic) [Compound I-91, (±)-trans-N-[trans-3-(4-Fluorophenoxy)cyclobutyl]-4-phenylpyrrolidine-3-carboxamide hydrochloride] | 1 to 10
O=C(Nc1cccc2c(Cl)nccc12)[C@H]1CNC[C@@H]1c1ccccc1 [Compound I-83, (3R,4S)—N-(1-Chloroisoquinolin-5-yl)-4-phenylpyrrolidine-3-carboxamide dihydrochloride] | 1 to 10
O=C(Nc1cccc(-c2ccccc2)c1)[C@@H]1CNC[C@H]1c1ccc(F)cc1 (racemic) [Compound I-23, (±)-trans-N-(Biphenyl-3-yl)-4-(4-fluorophenyl)pyrrolidine-3-carboxamide hydrochloride] | 1 to 10
O=C(Nc1csc2cnccc12)[C@H]1CNC[C@@H]1c1ccccc1 [Compound I-32, (3R,4S)-4-Phenyl-N-(thieno[2,3-c]pyridin-3-yl)pyrrolidine-3-carboxamide dihydrochloride] | 1 to 10
O=C(NC1CCN(c2ccc(F)cc2)CC1)[C@@H]1CNC[C@H]1c1ccccc1 [Compound I-121, (3S,4R)-3-{[1-(4-Fluorophenyl)Ipiperidin-4-yl]carbamoyl]}-4-phenylpyrrolidine dihydrochloride] | 1 to 10
O=C(Nc1cccc2cnccc12)N1CCC(c2ccccc2)C1 (stereo not shown) [Compound I-79, N-(Isoquinolin-5-yl)-3-phenylpyrrolidine-1-carboxamide] | > 50
O=C(Nc1cccc(-c2cccnc2)c1)[C@H]1CNC[C@@H]1C1CCCCC1 (racemic) [Compound I-71, (±)-trans 4-Cyclohexyl-N-[3-(pyridin-3-yl)phenyl]pyrrolidine-3-carboxamide dihydrochloride] | 1 to 10
O=C(Nc1cccc(-c2cccnc2)c1)[C@@H]1CNC[C@H]1C1CCOCC1 (racemic) [Compound I-50, (±)-trans-N-[3-(Pyridin-3-yl)phenyl]-4-(tetrahydro-2H-pyran-4-yl)pyrrolidine-3-carboxamide dihydrochloride] | > 50
O=C(NCc1cccc2cnccc12)[C@H]1CNC[C@@H]1c1ccccc1 [Compound I-67, (3R,4S)—N-(Isoquinolin-5-ylmethyl)-4-phenylpyrrolidine-3-carboxamide dihydrochloride] | > 50
O=C(Nc1cccc(-c2cccnc2)c1)c1c[nH]cc1-c1ccccc1 [Compound I-51, 4-Phenyl-N-[3-(pyridin-3-yl)phenyl]-1H-pyrrole-3-carboxamide] | > 50
O=C(Nc1cccc(Oc2ccc(C(F)(F)F)nc2)c1)[C@H]1CNC[C@@H]1c1ccccc1 (racemic) [Compound I-104, (±)-trans-4-Phenyl-N-(3-{[6-(trifluoromethyl)pyridin-3-yl]oxy}phenyl) pyrrolidine-3-carboxamide dihydrochloride] | < 1
O=C(NC1CN(c2ccc(F)cc2)C1)[C@@H]1CNC[C@H]1c1ccccc1 [Compound I-118, (3S,4R)-4-Phenyl-N-(1-4-fluorophenylazetidin-3-yl)pyrrolidine-3-carboxamide hydrochloride] | < 1
O=C(Nc1cccnc1)[C@H]1CNC[C@@H]1c1ccccc1 (racemic) [Compound I-19, (±)-trans-4-Phenyl-N-(pyridin-3-yl)pyrrolidine-3-carboxamide dihydrochloride] | > 50
O=C(Nc1cccc(Oc2ccc(C(F)(F)F)nc2)c1)[C@H]1CNC[C@@H]1c1ccccc1 [Compound I-119, 3R,4S)-4-Phenyl-N-(3-{[6-(trifluoromethyl)pyridin-3-yl]oxy}phenyl) pyrrolidine-3-carboxamide dihydrochloride] | 1 to 10

Second part, the compound after the results:

EC50 [µM] | Structure (SMILES)
1 to 10 | O=C(Nc1ccc(-c2cccnc2)cc1)[C@@H]1CNC[C@H]1c1ccccc1 (racemic) [Compound I-25, (±)-trans-4-Phenyl-N-[4-(pyridin-3-yl)phenyl]pyrrolidine-3-carboxamide dihydrochloride]
> 50 | O=C(Nc1ccc(Oc2cccnc2)cc1)[C@H]1CNC[C@@H]1c1ccccc1 (racemic) [Compound I-70, (±)-trans-4-Phenyl-N-[4-(pyridin-3-yloxy)phenyl]pyrrolidine-3-carboxamide dihydrochloride]
1 to 10 | O=C(Nc1cc2ccccc2cn1)[C@H]1CNC[C@@H]1c1ccccc1 [Compound I-38, (3R,4S)—N-(Isoquinolin-3-yl)-4-phenylpyrrolidine-3-carboxamide dihydrochloride]
10 to 50 | O=C(Nc1cccc2ncccc12)[C@@H]1CNC[C@H]1c1ccccc1 (racemic) [Compound I-17, (±)-trans-4-Phenyl-N-(quinolin-5-yl)pyrrolidine-3-carboxamide dihydrochloride]
< 1 | O=C(Nc1cccc(Nc2cccnc2)c1)[C@H]1CNC[C@@H]1c1ccccc1 (racemic) [Compound I-106, (±)-trans-4-Phenyl-N-[3-(pyridin-3-ylamino)phenyl]pyrrolidine-3-carboxamide dihydrochloride]
< 1 | N#Cc1ccc(Oc2cccc(NC(=O)[C@H]3CNC[C@@H]3c3ccccc3)c2)cc1 (racemic) [Compound I-90, (±)-trans-N-[3-(4-Cyanophenoxy)phenyl]-4-phenylpyrrolidine-3-carboxamide hydrochloride]
1 to 10 | O=C(Nc1cccc(-c2ccccc2)c1)[C@H]1CNC[C@@H]1c1ccccc1 [Compound I-37, (3R,4S)—N-(Biphenyl-3-yl)-4-phenylpyrrolidine-3-carboxamide hydrochloride]
> 50 | O=C(Nc1cccc(-c2cccnc2)c1)[C@H]1CNC[C@@H]1Cc1ccccc1 (racemic) [Compound I-72, (±)-trans 4-Benzyl-N-[3-(pyridin-3-yl)phenyl]pyrrolidine-3-carboxamide dihydrochloride]
< 1 | O=C(Nc1cccc(Oc2ccccc2)c1)[C@H]1CNC[C@@H]1c1ccccc1 (racemic) [Compound I-69, (±)-trans-N-(3-Phenoxyphenyl)-4-phenylpyrrolidine-3-carboxamide hydrochloride]
1 to 10 | O=C(Nc1cccc2ccccc12)[C@@H]1CNC[C@H]1c1ccccc1 (racemic) [Compound I-16, (±)-trans-N-(Naphthalen-1-yl)-4-phenylpyrrolidine-3-carboxamide hydrochloride]
1 to 10 | O=C(Nc1cccc2ccccc12)[C@@H]1CNC[C@H]1c1ccccc1 [Compound I-75, (3S,4R)—N-(Naphthalen-1-yl)-4-phenylpyrrolidine-3-carboxamide hydrochloride]
> 50 | CN1C[C@@H](C(=O)Nc2cccc(-c3cccnc3)c2)[C@H](c2ccccc2)C1 (racemic) [Compound I-46, (±)-trans-1-Methyl-4-phenyl-N-[3-(pyridin-3-yl)phenyl]pyrrolidine-3-carboxamide]
1 to 10 | O=C(Nc1ccc(-c2cccnc2)cc1)[C@@H]1CNC[C@H]1c1ccccc1 [Compound I-41, (3S,4R)-4-Phenyl-N-[4-(pyridin-3-yl)phenyl]pyrrolidine-3-carboxamide dihydrochloride]
1 to 10 | O=C(Nc1cccc(Oc2ccc(C(F)(F)F)cc2)c1)[C@H]1CNC[C@@H]1c1ccccc1 (racemic) [Compound I-92, (±)-trans-4-Phenyl-N-{3-[4-(trifluoromethyl)phenoxy]phenyl}pyrrolidine-3-carboxamide hydrochloride]
1 to 10 | O=C(c1ccccc1)c1cccc(NC(=O)[C@H]2CNC[C@@H]2c2ccccc2)c1 (racemic) [Compound I-94, (±)-trans-4-Phenyl-N-[3-(phenylcarbonyl)phenyl]pyrrolidine-3-carboxamide hydrochloride]
10 to 50 | O=C(NCc1ccccc1)[C@H]1CNC[C@@H]1c1ccccc1 [Compound I-33, (3R,4S)—N-Benzyl-4-phenylpyrrolidine-3-carboxamide hydrochloride]
> 50 | O=C(Nc1cccc2cnccc12)[C@@H]1CNC[C@@H]1c1ccccc1 [Compound I-66, (3S,4S)—N-(Isoquinolin-5-yl)-4-phenylpyrrolidine-3-carboxamide dihydrochloride]
1 to 10 | O=C(Nc1cc2ccccc2cn1)[C@@H]1CNC[C@H]1c1ccccc1 (racemic) [Compound I-14, (±)-trans-N-(Isoquinolin-3-yl)-4-phenylpyrrolidine-3-carboxamide dihydrochloride]
1 to 10 | O=C(Nc1cccc(-c2ccccc2)c1)[C@@H]1CNC[C@H]1c1ccccc1 [Compound I-42, (3S,4R)—N-(Biphenyl-3-yl)-4-phenylpyrrolidine-3-carboxamide hydrochloride]

From patent publication US20220213061A9, “HETEROCYCLIC COMPOUNDS FOR MODULATING NR2F6” (TES Pharma S.r.l., priority 2020, published 2022)
